Assay results as given in patent publication US20120288482A1, “THERAPEUTIC AGENT (Y-39983) FOR CORNEAL ENDOTHELIAL DYSFUNCTION” (priority 2009, published 2012).

What was measured:
[1] = tested on: corneal endothelial wound; assay: Rabbit corneal endothelial wound model, topical instillation (Example 1); type: in vivo; conditions: for area of the unrepaired wound site (corneal endothelium wound area): 6 times a day, 46 hours after wound creation
Experimental: In this Example, 0.95 mM (0.03 w/v%) compound (I) instillation and 0.32 mM (0.01 w/v%) compound (I) instillation obtained by diluting the above instillation with the above-mentioned vehicle were used.
As a positive control substances, Y-27632 dihydrochloride (Wako Pure Chemical Industries, Co., Ltd., Cat. #253-00513) and fasudil hydrochloride hydrate injection (Eril (registered trade mark) drip intravenous injection, Asahi Kasei Pharma) were purchased, and Y-27632 and Fasudil were each adjusted to 10 mM with phosphate-buffered saline (PBS, Invitrogen, Cat. #14190). In addition, PBS was used as a negative control substance.
Male Japanese white rabbits (body weight 2.5-3.0 kg, 21 rabbits) were purchased from Biotek Co., Ltd. and used. They are kept in individual cages at 23±3° C. temperature, at 55±10% humidity and 12 hours artificial light cycle (lighting on; 8:00 a.m., lighting off; 8:00 p.m.). One hundred grams of solid food (Labo R stock; Nosan Corp.) are provided daily to each animal. Water is supplied by automatic watering apparatus.
3. Excision of Nictitating Membrane of Animal Before starting the test, the nictitating membrane of both eyes of the animal was excised. To be specific, each animal was set in a positioner, and the ocular surface was topically anesthetized by instillation of a topical anesthesia (Benoxil instillation 0.4%, Santen Pharmaceutical Co., Ltd.). Then, the root position of the nictitating membrane was pressed with a clamp for 30 sec, and compressing mark was cut with scissors. After excision of the nictitating membrane, the antibiotic ointment (tarivid eye ointment, Santen Pharmaceutical Co., Ltd.) was instilled to prevent infection. After 4 days from the excision of the nictitating membrane, animals confirmed to have no abnormality in the external eye including the excised site were used.
The corneal thickness of the right eye of each animal was measured with an ultrasonic pachymeter (manufactured by DGH Technologies Inc., DGH-500), and the animals were divided into 4 groups such that the corneal thickness of each group was equal. The animals used for each group were as follows. • 10 mM Y-27632 group=5 eyes • 0.32 mM compound (I) group=5 eyes • 0.95 mM compound (I) group=6 eyes • 10 mM Fasudil group=5 eyes • PBS group=21 eyes (left eye)
The animals were sytemically anesthetized by intramuscular administration of Ketalar muscular injection ([…], DAIICHI SANKYO COMPANY, LIMITED., 0.6 ml) and Celactal 2% Injection (Bayer, Ltd., 0.25 ml). Then, Benoxil instillation 0.4% (Santen Pharmaceutical Co., Ltd., one drop) was instilled and the eye was opened using a lid speculum.
A 7-mm diameter stainless dowel that had been cooled in liquid nitrogen was placed on the central cornea of both eyes of 21 animals for 15 sec. to produce an ice ball in the anterior chamber and dissociate corneal endothelial cells, whereby a corneal endothelial wound was produced.
For topical instillation, after wound creation, compound (I) instillation, Y-27632 instillation or Fasudil instillation was instilled to the right eye, and PBS was instilled to the left eye 6 times a day (4 times on the day of wound production) at 50 μL per instillation. Administration interval in one day was 2 hours. […]

[2] = tested on: rabbit corneal endothelial cells; assay: In vitro wound healing model of rabbit corneal endothelial cells (Example 9); type: cell-based
Experimental: In this Example, test substances and control substance prepared in the same manner as in Example 4 were used. Corneoscleral tissue was collected from 10 rabbit eyeballs purchased from Funakoshi Corporation. The corneoscleral tissue was immersed in DMEM (Invitrogen, Cat. #12320-032) containing 1% penicillin/streptomycin (Invitrogen, Cat. #15140-122), and incubated at 37° C. for 1 hour. The Descemet's membrane was stripped together with intact corneal endothelial cells, immersed in a culture medium (DMEM, 10% FBS, 2 ng/mL bFGF (Invitrogen, Cat. #13256-029), 1% penicillin/streptomycin) containing 2 mg/mL Collagenase A (Roche, Cat. #1088793), and incubated at 37° C. for 2 hours. The cells were collected by centrifugation, washed with the culture medium, and seeded in a T25 flask (Corning Incorporated, Cat. #430639) coated with FNC coating mix (Athena ES, Cat. #0407). The flask were left standing in a 5% CO2 incubator at 37° C., the medium was exchanged every 2-3 days, and the cells were cultured to confluent. The cells that reached confluent were collected, seeded in two 6 well plates (Falcon, Cat. #3046) coated with FNC coating mix, and cultured to confluent. The prepared rabbit corneal endothelial cells were collected, seeded in a 6 well plate at a division ratio of 1:4, and cultured to confluent in the same culture medium as in the above-mentioned (1). Linear wound was created in the confluent cells using 1000 μL chip (6 wounds per well). After creating the linear wounds, the culture medium was exchanged, and 0.95 μM, 1.58 μM and 3.16 μM compound (I), 10 μM Y-27632 and 0.04% DMSO were added. Compound (I) and Y-27632 were dissolved in DMSO in advance, where the DMSO concentration was adjusted to 0.04% for both. The width of the wound at 0, 6, 12 and 24 hours after the addition was photographed over time. The wound width was measured by Image-Pro plus (Media Cybernetics, Inc.). The ratio of wound width at each hour was calculated by taking that at 0 hour after the addition of medicament as 100%, and the time-course changes of the ratio of wound width were evaluated. The ratio of wound width was applied to statistical analysis according to the Dunnett's test at each time point.

Compound | area of the unrepaired wound site (corneal endothelium wound area) ([1]; 10 mM instillation) [mm^2] | ratio of wound width versus control ([2]; 10 μM, 24 hours after addition) | area of the unrepaired wound site (corneal endothelium wound area) ([1]; 0.32 mM instillation) [mm^2] | area of the unrepaired wound site (corneal endothelium wound area) ([1]; 0.95 mM instillation) [mm^2] | wound area compared to the PBS instillation group ([1]; 0.95 mM instillation, Dunnett's test) | concentration showing the highest effect in the in vitro wound healing model [2] | ratio of wound width versus control ([2]; 0.95 μM, 6 hours after addition, Dunnett's test) | wound healing effect ([2]; 1.58 μM) | ratio of wound width versus control ([2]; compound (I), 24 hours after addition, Dunnett's test) | concentration showing a wound healing promoting effect ([2]; in vitro wound healing model, Example 9) [µM]
C[C@@H](N)[C@H]1CC[C@H](C(=O)Nc2ccncc2)CC1 [Y-27632, reference compound] | 1.1 | showed a difference from the control for the first time | – | – | – | – | – | – | – | –
C[C@@H](N)c1ccc(C(=O)Nc2ccnc3[nH]ccc23)cc1.Cl [compound (I), (R)-(+)-N-(1H-pyrrolo[2,3-b]pyridin-4-yl)-4-(1-aminoethyl)benzamide monohydrochloride] | – | – | 1.1 | 0.4 | statistically significant decrease in the wound area | about 0.95 μM | statistically significant difference from the control | significant effect, the effect was weaker than that of the 0.95 μM compound (I) | statistically significant difference even 24 hours later | 0.95 to 1.58
